Results published in US20250101041A1, “POSITIVE ALLOSTERIC MODULATORS OF THE MUSCARINIC ACETYLCHOLINE RECEPTOR M4” (Vanderbilt University, priority 2022, published 2025).

Biological target: T1, human mAChR M4 (Homo sapiens, UniProt P08173)
T1 construct: expressed in transfected cells; host or cells: CHO-K1 (American Type Culture Collection), stably expressing hM4 and Gqi5
T1 sequence (P08173 1-479): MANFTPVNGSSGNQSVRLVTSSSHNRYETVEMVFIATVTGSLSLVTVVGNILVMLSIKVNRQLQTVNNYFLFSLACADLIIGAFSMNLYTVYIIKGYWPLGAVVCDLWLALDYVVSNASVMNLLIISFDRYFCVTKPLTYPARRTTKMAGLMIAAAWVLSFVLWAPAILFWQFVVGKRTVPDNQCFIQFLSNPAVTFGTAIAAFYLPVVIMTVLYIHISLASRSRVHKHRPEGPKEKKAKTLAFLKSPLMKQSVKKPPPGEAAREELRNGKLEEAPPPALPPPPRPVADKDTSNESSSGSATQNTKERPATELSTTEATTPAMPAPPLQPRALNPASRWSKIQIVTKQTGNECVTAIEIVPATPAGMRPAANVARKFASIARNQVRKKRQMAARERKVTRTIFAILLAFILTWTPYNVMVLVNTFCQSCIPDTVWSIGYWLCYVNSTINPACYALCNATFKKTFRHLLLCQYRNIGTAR
Test: mAChR M4 cell-based functional assay: calcium mobilization (Fluo-4, FDSS), potentiation of EC20 acetylcholine response in hM4-Gqi5 CHO-K1 cells
Conditions: human M4; for Emax at 30 µM: CHO-K1, % ACh maximum at 30 μM; for EC50: potentiation of EC20 acetylcholine response, calcium mobilization
Outline: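 Readout is the fluorescence-ratio rise at 1 Hz on FDSS, with PAM activity taken as concentration-dependent enhancement of the EC20 acetylcholine response, fitted four-parameter for EC50/Emax. hM4-Gqi5 CHO-K1 cells carried Fluo-4 AM dye; test compounds (11 points, 1:3) preceded EC20 acetylcholine additions at 144 s and 230 s.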

| Emax at 30 µM [%] | EC50 [nM] | Compound |
| --- | --- | --- |
| 78 | 313 | Cc1c(N2CCc3ncc(-c4cnn(CCN(C)C)c4)cc3C2)nn2c(=O)cc(C(F)F)nc2c1C [Compound 1-308, 2-(difluoromethyl)-7-(3-(1-(2-(dimethylamino)ethyl)-1H-pyrazol-4-yl)-7,8-dihydro-1,6-naphthyridin-6(5H)-yl)-8,9-dimethyl-4H-pyrimido[1,2-b]pyridazin-4-one] |
| 88 | 203 | Cc1c(N2CCc3ncc(-c4cnn(C5COC5)c4)cc3C2)nn2c(=O)cc(C(F)F)nc2c1C [Compound 1-309, 2-(difluoromethyl)-8,9-dimethyl-7-(3-(1-(oxetan-3-yl)-1H-pyrazol-4-yl)-7,8-dihydro-1,6-naphthyridin-6(5H)-yl)-4H-pyrimido[1,2-b]pyridazin-4-one] |
| 86 | 136 | Cc1nn(C)c(C)c1-c1cnc2c(c1)CN(c1nn3c(=O)cc(C(F)F)nc3c(C)c1C)CC2 [Compound 1-310, 2-(difluoromethyl)-8,9-dimethyl-7-(3-(1,3,5-trimethyl-1H-pyrazol-4-yl)-7,8-dihydro-1,6-naphthyridin-6(5H)-yl)-4H-pyrimido[1,2-b]pyridazin-4-one] |
| 79 | 1270 | COc1ccsc1-c1cnc2c(c1)CN(c1nn3c(=O)cc(C(F)F)nc3c(C)c1C)CC2 [Compound 1-311, 2-(difluoromethyl)-7-(3-(3-methoxythiophen-2-yl)-7,8-dihydro-1,6-naphthyridin-6(5H)-yl)-8,9-dimethyl-4H-pyrimido[1,2-b]pyridazin-4-one] |
| 82 | 158 | Cc1c(N2CCc3ncc(-c4cccs4)cc3C2)nn2c(=O)cc(C(F)F)nc2c1C [Compound 1-312, 2-(difluoromethyl)-8,9-dimethyl-7-(3-(thiophen-2-yl)-7,8-dihydro-1,6-naphthyridin-6(5H)-yl)-4H-pyrimido[1,2-b]pyridazin-4-one] |
| 96 | 503 | COCc1cc(=O)n2nc(N3CCc4ncc(C(F)(F)F)cc4C3)c(C)cc2n1 [Compound 1-313, 2-(methoxymethyl)-8-methyl-7-(3-(trifluoromethyl)-7,8-dihydro-1,6-naphthyridin-6(5H)-yl)-4H-pyrimido[1,2-b]pyridazin-4-one] |
| 96 | 109 | COCc1cc(=O)n2nc(N3CCc4ncc(-c5ccc(C)nc5)cc4C3)c(C)cc2n1 [Compound 1-314, 2-(methoxymethyl)-8-methyl-7-(3-(6-methylpyridin-3-yl)-7,8-dihydro-1,6-naphthyridin-6(5H)-yl)-4H-pyrimido[1,2-b]pyridazin-4-one] |
| 71 | 448 | Cc1cc2nccc(=O)n2nc1N1CCc2ncc(-c3ccc(OC(F)F)nc3)cc2C1 [Compound 1-315, 7-(3-(6-(difluoromethoxy)pyridin-3-yl)-7,8-dihydro-1,6-naphthyridin-6(5H)-yl)-8-methyl-4H-pyrimido[1,2-b]pyridazin-4-one] |
| 71 |  | Cc1cc2nccc(=O)n2nc1N1CCc2ncc(-c3ccc(C#N)nc3)cc2C1 [Compound 1-316, 5-(6-(8-methyl-4-oxo-4H-pyrimido[1,2-b]pyridazin-7-yl)-5,6,7,8-tetrahydro-1,6-naphthyridin-3-yl)picolinonitrile] |
| 70 | 716 | Cc1cc(OC(F)F)ncc1-c1cnc2c(c1)CN(c1nn3c(=O)ccnc3cc1C)CC2 [Compound 1-317, 7-(3-(6-(difluoromethoxy)-4-methylpyridin-3-yl)-7,8-dihydro-1,6-naphthyridin-6(5H)-yl)-8-methyl-4H-pyrimido[1,2-b]pyridazin-4-one] |
| 55 | 2400 | Cc1cc2nccc(=O)n2nc1N1CCc2ncc(-c3ccc(F)nc3F)cc2C1 [Compound 1-318, 7-(3-(2,6-difluoropyridin-3-yl)-7,8-dihydro-1,6-naphthyridin-6(5H)-yl)-8-methyl-4H-pyrimido [1,2-b]pyridazin-4-one] |
